Consider 24 compounds from patent US9708259B2 (Hoffmann-La Roche Inc., priority 2013, dated 2017).

As usually defined, the EC50 is the concentration needed to bring the measured effect to its halfway point.

Positions count from the first letter of the chain named. Read-outs that look alike come from different tables or passages of the source.

In assay [1] the target is T1, human M1 (Homo sapiens, UniProt P11229).
T1 construct: expressed in transfected cells; host or cells: CHO cells
T1 sequence (P11229 1-460): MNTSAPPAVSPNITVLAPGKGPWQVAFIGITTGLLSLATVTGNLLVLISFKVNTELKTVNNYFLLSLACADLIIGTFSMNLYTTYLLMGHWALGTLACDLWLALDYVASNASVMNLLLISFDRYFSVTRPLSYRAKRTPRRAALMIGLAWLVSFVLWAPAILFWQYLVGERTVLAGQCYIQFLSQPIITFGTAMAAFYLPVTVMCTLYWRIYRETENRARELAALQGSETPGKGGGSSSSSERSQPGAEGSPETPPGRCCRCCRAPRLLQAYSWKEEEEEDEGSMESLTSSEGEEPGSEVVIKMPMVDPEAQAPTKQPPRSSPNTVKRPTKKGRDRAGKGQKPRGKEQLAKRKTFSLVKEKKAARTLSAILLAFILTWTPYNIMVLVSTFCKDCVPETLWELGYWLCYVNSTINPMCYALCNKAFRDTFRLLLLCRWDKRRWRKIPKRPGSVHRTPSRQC
In words: M1 PAM assay (FLIPR intracellular calcium), human M1. Type of assay: cell-based. In a few lines:
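CHO cells expressing M1, Fluo-4AM-loaded, in HEPES/probenecid HBSS pH 7.4, 1% DMSO final. Compounds pre-incubated 2 min for agonist activity versus 30 nM acetylcholine control. For PAM activity, acetylcholine EC20 added after the 2 min pre-incubation, then 2 min more before FLIPR intracellular Ca2+ read.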
Background: A change in cytosolic calcium serves as a functional read-out for many receptors and channels.

Assay [2] addresses T2, ratM1 (Rattus norvegicus, UniProt P08482).
T2 construct: expressed in transfected cells; host or cells: CHO cells (stated generally for the assay, not specifically for rat M1)
T2 sequence (P08482 1-460): T1 sequence (P11229 1-460) with A5V, T254S, P309S, R320K, A337G, I413V
The assay is described as follows: M1 PAM assay (FLIPR intracellular calcium), rat M1. In kind it is cell-based.

[3] abbreviates: CHO human M1 cells, FLIPR Ca2+, with EC20 of acetylcholine, first value of the cell, read-out: hM1 EC50.
Where [4] appears, read: rat M1, FLIPR Ca2+, second value of the cell, read-out: ratM1 EC50.

As for `Cc1cn(-c2ccc(Cn3cc(C(=O)N[C@H]4CCCC[C@@H]4O)c4c(F)c(F)ccc43)cc2)cn1` [Example 60, 4,5-difluoro-N-((1S,2S)-2-hydroxycyclohexyl)-1-(4-(4-methyl-1H-imidazol-1-yl)benzyl)-1H-indole-3-carboxamide], the results for the EC50 in assay [1] (setting [3]) and in assay [2] (setting [4]) were 101 nM and 183 nM, respectively.
On the same counts, the results for `CNC(=O)c1ccc(Cn2cc(C(=O)NC3CCC3)c3c(F)cccc32)cc1` [Example 112, N-cyclobutyl-4-fluoro-1-[[4-(methylcarbamoyl)phenyl]methyl]indole-3-carboxamide] are 72 nM and 168 nM.
The like results for `Cn1cc(-c2ccc(Cn3cc(C(=O)N[C@H]4CCCC[C@@H]4O)c4c(F)cccc43)cc2)cn1` [Example 44, 4-fluoro-N-((1S,2S)-2-hydroxycyclohexyl)-1-(4-(1-methyl-1H-pyrazol-4-yl)benzyl)-1H-indole-3-carboxamide] were, in that order, 6 nM and 9.8 nM.
Regarding `COc1ccc(F)c2c(C(=O)NC3CCOCC3)cn(Cc3ccc4c(cnn4C)c3)c12` [Example 154, 4-fluoro-7-methoxy-1-((1-methyl-1H-indazol-5-yl)methyl)-N-(tetrahydro-2H-pyran-4-yl)-1H-indole-3-carboxamide], the EC50 in assay [1] came to 272 nM; in assay [2], 837 nM.
As to `CNC(=O)c1ccc(Cn2cc(C(=O)NC3CCOC(C)C3)c3c(F)cccc32)cc1` (stereo not drawn) [Example 127, 4-fluoro-1-[[4-(methylcarbamoyl)phenyl]methyl]-N-(2-methyloxan-4-yl)indole-3-carboxamide], the values for the concentration for a half-maximal effect (EC50) in assay [1] (setting [3]) and in assay [2] (setting [4]) were 19 nM and 26 nM, respectively.
On the same counts, the results for `O=C(N[C@H]1CCCC[C@@H]1O)c1cn(Cc2ccc(-c3cccnc3)cc2)c2cccc(F)c12` [Example 159, 4-Fluoro-N-((1S,2S)-2-hydroxycyclohexyl)-1-(4-(pyridin-3-yl)benzyl)-1H-indole-3-carboxamide] are 20 nM and 47 nM.
On the same counts, the results for `Cn1cc(-c2ccc(Cn3cc(C(=O)N[C@@H]4C[C@@H]5CC[C@H]4O5)c4c(F)cccc43)c(F)c2)cn1` (relative stereo) [Example 104, N-((endo)-7-oxabicyclo[2.2.1]heptan-2-yl)-4-fluoro-1-(2-fluoro-4-(1-methyl-1H-pyrazol-4-yl)benzyl)-1H-indole-3-carboxamide] are 165 nM and 196 nM.
On the same counts, the results for `Cc1cn(-c2ccc(Cn3cc(C(=O)NC4CCOCC4)c4c(F)cccc43)cc2)cn1` [Example 67, 4-fluoro-1-(4-(4-methyl-1H-imidazol-1-yl)benzyl)-N-(tetrahydro-2H-pyran-4-yl)-1H-indole-3-carboxamide] are 82.8 nM and 183 nM.
Take `Cn1cc(-c2ccc(Cn3cc(C(=O)NC4CCC4)c4c(F)cccc43)cc2)cn1` [Example 11, N-cyclobutyl-4-fluoro-1-(4-(1-methyl-1H-pyrazol-4-yl)benzyl)-1H-indole-3-carboxamide]: the values for the EC50 in assay [1] (setting [3]) and in assay [2] (setting [4]) were 413 nM and 618 nM, respectively.
On the same counts, the results for `CNC(=O)c1ccc(Cn2cc(C(=O)NC3CCCCCC3)c3c(F)cccc32)cc1` [Example 115, N-cycloheptyl-4-fluoro-1-[[4-(methylcarbamoyl)phenyl]methy]indole-3-carboxamide] are 50 nM and 28 nM.
Regarding `O=C(N[C@H]1CCCC[C@@H]1O)c1cn(Cc2ccc(F)c(F)c2)c2cccc(F)c12` [Example 41, 1-(3,4-difluorobenzyl)-4-fluoro-N-((1S,2S)-2-hydroxycyclohexyl)-1H-indole-3-carboxamide], the EC50 in assay [1] amounted to 219 nM; in assay [2], 456 nM.
On to `COc1ccc(F)c2c(C(=O)N[C@H]3CCCC[C@@H]3O)cn(Cc3ccc(-c4cnn(C)c4)cc3)c12` [Example 148, 4-fluoro-N-((1S,2S)-2-hydroxycyclohexyl)-7-methoxy-1-(4-(1-methyl-1H-pyrazol-4-yl)benzyl)-1H-indole-3-carboxamide], for which the EC50 in assay [1] (setting [3]) worked out at 84 nM; in assay [2] (setting [4]) it was 139 nM.
On the same counts, the results for `Cc1nc(-c2ccc(Cn3cc(C(=O)N[C@H]4CCOC[C@@H]4O)c4c(F)cccc43)cc2)no1` [Example 83, 4-fluoro-N-((3R,4S)-3-hydroxytetrahydro-2H-pyran-4-yl)-1-(4-(5-methyl-1,2,4-oxadiazol-3-yl)benzyl)-1H-indole-3-carboxamide] are 184 nM and 160 nM.
On the same counts, the results for `Cn1cc(-c2ccc(Cn3cc(C(=O)N[C@H]4CCCC[C@@H]4O)c4c(F)c(F)ccc43)cn2)cn1` [Example 58, 4,5-difluoro-N-((1S,2S)-2-hydroxycyclohexyl)-1-((6-(1-methyl-1H-pyrazol-4-yl)pyridine-3-yl)methyl)-1H-indole-3-carboxamide] are 174 nM and 10000 nM.
The like results for `Cn1cc(-c2ccc(Cn3cc(C(=O)N[C@H]4COCC[C@@H]4O)c4c(F)cccc43)c(F)c2)cn1` [Example 22, 4-fluoro-1-(2-fluoro-4-(1-methyl-1H-pyrazol-4-yl)benzyl)-N-((3S,4S)-4-hydroxytetrahydro-2H-pyran-3-yl)-1H-indole-3-carboxamide] were, in that order, 17.8 nM and 60.5 nM.
Consider `Cn1cc(-c2ccc(Cn3cc(C(=O)NC4CCOCC4)c4c(F)cccc43)c(F)c2)cn1` [Example 21, 4-fluoro-1-(2-fluoro-4-(1-methyl-1H-pyrazol-4-yl)benzyl)-N-(tetrahydro-2H-pyran-4-yl)-1H-indole-3-carboxamide], for which the concentration for a half-maximal effect (EC50) was 60.5 nM in assay [1] (setting [3]) and 175 nM in assay [2] (setting [4]).
The like results for `NC(=O)c1ccc(Cn2cc(C(=O)N[C@H]3CCOC[C@@H]3O)c3c(F)cccc32)cc1` (racemic) [Example 15, 1-(4-carbamoylbenzyl)-4-fluoro-N-((3RS,4SR)-3-hydroxytetrahydro-2H-pyran-4-yl)-1H-indole-3-carboxamide] were, in that order, 12.4 nM and 9.61 nM.
The like results for `Cn1cc(-c2ccc(Cn3cc(C(=O)N[C@H]4CCCC[C@]4(C)O)c4c(F)cccc43)c(F)c2)cn1` (racemic) [Example 18, 4-fluoro-1-(2-fluoro-4-(1-methyl-1H-pyrazol-4-yl)benzyl)-N-((1SR,2SR)-2-hydroxy-2-methylcyclohexyl)-1H-indole-3-carboxamide] were, in that order, 61.2 nM and 185 nM.
The like results for `O=C(N[C@H]1CCCC[C@@H]1O)c1cn(Cc2ccc(-c3nccs3)cn2)c2cccc(F)c12` [Example 141, 4-fluoro-N-((1S,2S)-2-hydroxycyclohexyl)-1-((5-(thiazol-2-yl)pyridin-2-yl)methyl)-1H-indole-3-carboxamide] were, in that order, 155 nM and 453 nM.
As for `CNC(=O)c1ccc(Cn2cc(C(=O)NC)c3c(F)cccc32)cc1` [Example 110, 4-fluoro-N-methyl-1-[[4-(methylcarbamoyl)phenyl]methyl]indole-3-carboxamide], the results for the EC50 in assay [1] (setting [3]) and in assay [2] (setting [4]) were 141 nM and 482 nM, respectively.
On the same counts, the results for `CNC(=O)c1ccc(Cn2cc(C(=O)NC3CCSCC3)c3c(F)cccc32)cc1` [Example 124, 4-fluoro-1-[[4-(methylcarbamoyl)phenyl]methyl]-N-(thian-4-yl)indole-3-carboxamide] are 11 nM and 24 nM.
On the same counts, the results for `Cn1cc(-c2ccc(Cn3cc(C(=O)N[C@H]4CCCC(F)(F)[C@@H]4O)c4c(F)cccc43)c(F)c2)cn1` [Example 103, N-((1S,2R)-3,3-difluoro-2-hydroxycyclohexyl)-4-fluoro-1-(2-fluoro-4-(1-methyl-1H-pyrazol-4-yl)benzyl)-1H-indole-3-carboxamide] are 7 nM and 32 nM.
For `Cn1cc(-c2ccc(Cn3cc(CC(=O)N[C@H]4CCCC[C@@H]4O)c4c(F)cccc43)c(F)c2)cn1` [Example 93, 2-(4-fluoro-1-(2-fluoro-4-(1-methyl-1H-pyrazol-4-yl)benzyl)-1H-indol-3-yl)-N-((1S,2S)-2-hydroxycyclohexyl)acetamide], the EC50 in assay [1] (setting [3]) amounted to 191 nM; in assay [2] (setting [4]) it was 1880 nM.
On the same counts, the results for `CNC(=O)c1ccc(Cn2cc(C(=O)NC3CCC(F)(F)CC3)c3c(F)cccc32)cc1` [Example 117, N-(4,4-difluorocyclohexyl)-4-fluoro-1-[[4-(methylcarbamoyl)phenyl]methyl]indole-3-carboxamide] are 14 nM and 29 nM.
